# Results: patent publication EP0326329B1, “Quinazoline derivatives useful as insecticides” (Dow AgroSciences LLC, priority 1988, dated 1989)
# System: Botrytis cinerea (gray mold)
# Assay: Greenhouse Test 1, foliar spray fungicide screen (GRAY MOLD), host grape berries
# Format: in vivo
# Conditions: disease control rating, 400 ppm (+++ at 100 ppm)
row,Compound,GRAY MOLD
1,"Fc1ccccc1Oc1ccc(CCOc2ncnc3c(F)cccc23)cc1 [Example 198, 8-fluoro-4-[2-[4-(2-fluorophenoxy)phenyl]ethoxy]quinazoline]",- (- = 0-19% control at 400 ppm)
2,"CC(COc1ncnc2c(F)cccc12)c1ccc(-c2ccccc2)cc1 (centres unmarked) [Example 199, 8-fluoro-4-[2-(1,1'-biphenyl)4-ylpropoxy]quinazoline]",- (- = 0-19% control at 400 ppm)
3,"CC(C)(C)c1ccc(CCCCOc2ncnc3c(F)cccc23)cc1 [Example 200, 8-fluoro-4-[4-[4-(t-butyl)phenyl]butoxy]quinazoline]",- (- = 0-19% control at 400 ppm)
4,[3-(3-methoxyphenyl)propyl]quinazoline [Example 72],- (- = 0-19% control at 400 ppm)

# System: Venturia inaequalis (apple scab)
# Assay: Greenhouse Test 1, foliar spray fungicide screen (APPL SCAB), host apple seedling
# Format: in vivo
# Conditions: disease control rating, 400 ppm (+++ at 100 ppm)
row,Compound,APPL SCAB
1,"COc1ccccc1CCNc1nc(NCCc2ccccc2OC)c2ccccc2n1 [Example 25, N,N'-bis[2-(2-methoxyphenyl)ethyl]-2,4-quinazolinediamine]",- (- = 0-19% control at 400 ppm)

# System: melon aphids (Aphis gossypii Glover)
# Assay: Mite/insect screen, sprayed squash cotyledons (MA)
# Format: in vivo
# Conditions: Aphis gossypii, percent mortality, melon aphids; sprayed squash cotyledons; RATE 200 PPM; read-out: MA RESULTS %
# Method in brief: (§1)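 Percent mortality and phytotoxicity are the read-outs, assessed after standard exposure periods. Test solutions, made in 50:50 acetone/alcohol with two sulfonate/nonionic emulsifier blends and diluted in water, are sprayed to runoff on both leaf surfaces, which then dry for one hour.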
row,Compound,mortality at 200 ppm
1,"CC(COc1ncnc2c(F)cccc12)c1ccc(-c2ccccc2)cc1 (centres unmarked) [Example 199, 8-fluoro-4-[2-(1,1'-biphenyl)4-ylpropoxy]quinazoline]",100%
2,"CC(C)(C)c1ccc(CCCCOc2ncnc3c(F)cccc23)cc1 [Example 200, 8-fluoro-4-[4-[4-(t-butyl)phenyl]butoxy]quinazoline]",60%

# Same assay, conditions: Aphis gossypii, percent mortality, melon aphids; sprayed squash cotyledons; RATE 400 PPM; read-out: MA RESULTS %
row,Compound,mortality at 400 ppm
1,"Fc1ccccc1Oc1ccc(CCOc2ncnc3c(F)cccc23)cc1 [Example 198, 8-fluoro-4-[2-[4-(2-fluorophenoxy)phenyl]ethoxy]quinazoline]",0%
2,"CC(COc1ncnc2c(F)cccc12)c1ccc(-c2ccccc2)cc1 (centres unmarked) [Example 199, 8-fluoro-4-[2-(1,1'-biphenyl)4-ylpropoxy]quinazoline]",0%
3,"CC(C)(C)c1ccc(CCCCOc2ncnc3c(F)cccc23)cc1 [Example 200, 8-fluoro-4-[4-[4-(t-butyl)phenyl]butoxy]quinazoline]",80%

# Same assay, conditions: Aphis gossypii, percent mortality; spray rate 200 ppm; read-out: MA RESULTS %
row,Compound,mortality at 200 ppm
1,"COc1ccccc1CCNc1nc(NCCc2ccccc2OC)c2ccccc2n1 [Example 25, N,N'-bis[2-(2-methoxyphenyl)ethyl]-2,4-quinazolinediamine]",0%
2,"Fc1ccccc1Oc1ccc(CCOc2ncnc3c(F)cccc23)cc1 [Example 198, 8-fluoro-4-[2-[4-(2-fluorophenoxy)phenyl]ethoxy]quinazoline]",100%

# Same assay, conditions: percent mortality; spray rate 400 ppm
row,Compound,MA RESULTS %
1,[3-(3-methoxyphenyl)propyl]quinazoline [Example 72],0%

# System: Southern corn rootworm (Diabrotica undecimpuctata howardi Barber)
# Assay: Mite/insect screen, soil treatment (CRW)
# Format: in vivo
# Conditions: Diabrotica; percent mortality, corn rootworm; soil treatment; CRW RATE 12.00 PPM; read-out: CRW RESULTS %
# Method in brief: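 Five 2–3 instar larvae were placed on dry sandy soil with a presoaked corn seed after the soil had received 1 mL of compound solution and dried 6–12 h; cups were kept capped at 23°C. Mortality (%) and phytotoxicity were read after standard exposure. Formulation: acetone/alcohol with emulsifiers, water-diluted.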
row,Compound,mortality at 12 ppm
1,"CC(COc1ncnc2c(F)cccc12)c1ccc(-c2ccccc2)cc1 (centres unmarked) [Example 199, 8-fluoro-4-[2-(1,1'-biphenyl)4-ylpropoxy]quinazoline]",0%
2,"CC(C)(C)c1ccc(CCCCOc2ncnc3c(F)cccc23)cc1 [Example 200, 8-fluoro-4-[4-[4-(t-butyl)phenyl]butoxy]quinazoline]",100%

# Same assay, conditions: Diabrotica; percent mortality, corn rootworm; soil treatment; CRW RATE 24.00 PPM; read-out: CRW RESULTS %
row,Compound,mortality at 24 ppm
1,"Fc1ccccc1Oc1ccc(CCOc2ncnc3c(F)cccc23)cc1 [Example 198, 8-fluoro-4-[2-[4-(2-fluorophenoxy)phenyl]ethoxy]quinazoline]",0%
2,"CC(COc1ncnc2c(F)cccc12)c1ccc(-c2ccccc2)cc1 (centres unmarked) [Example 199, 8-fluoro-4-[2-(1,1'-biphenyl)4-ylpropoxy]quinazoline]",0%
3,"CC(C)(C)c1ccc(CCCCOc2ncnc3c(F)cccc23)cc1 [Example 200, 8-fluoro-4-[4-[4-(t-butyl)phenyl]butoxy]quinazoline]",100%

# Same assay, conditions: Diabrotica; percent mortality; soil treatment, CRW rate 12.00 ppm; read-out: CRW RESULTS %
row,Compound,mortality at 12 ppm
1,"COc1ccccc1CCNc1nc(NCCc2ccccc2OC)c2ccccc2n1 [Example 25, N,N'-bis[2-(2-methoxyphenyl)ethyl]-2,4-quinazolinediamine]",0%
2,"Fc1ccccc1Oc1ccc(CCOc2ncnc3c(F)cccc23)cc1 [Example 198, 8-fluoro-4-[2-[4-(2-fluorophenoxy)phenyl]ethoxy]quinazoline]",0%

# Same assay, conditions: percent mortality; soil treatment, CRW rate 24.00 ppm
row,Compound,CRW RESULTS %
1,[3-(3-methoxyphenyl)propyl]quinazoline [Example 72],0%

# System: Erysiphe graminis tritici (powdery mildew)
# Assay: Greenhouse Test 1, foliar spray fungicide screen (POWD MDEW), host wheat
# Format: in vivo
# Conditions: disease control rating, 400 ppm (+++ at 100 ppm)
row,Compound,POWD MDEW
1,"COc1ccccc1CCNc1nc(NCCc2ccccc2OC)c2ccccc2n1 [Example 25, N,N'-bis[2-(2-methoxyphenyl)ethyl]-2,4-quinazolinediamine]",- (- = 0-19% control at 400 ppm)
2,"Fc1ccccc1Oc1ccc(CCOc2ncnc3c(F)cccc23)cc1 [Example 198, 8-fluoro-4-[2-[4-(2-fluorophenoxy)phenyl]ethoxy]quinazoline]",+++ (+++ = 90-100% control at 100 ppm)
3,"CC(COc1ncnc2c(F)cccc12)c1ccc(-c2ccccc2)cc1 (centres unmarked) [Example 199, 8-fluoro-4-[2-(1,1'-biphenyl)4-ylpropoxy]quinazoline]",+++ (+++ = 90-100% control at 100 ppm)
4,"CC(C)(C)c1ccc(CCCCOc2ncnc3c(F)cccc23)cc1 [Example 200, 8-fluoro-4-[4-[4-(t-butyl)phenyl]butoxy]quinazoline]",+++ (+++ = 90-100% control at 100 ppm)
5,[3-(3-methoxyphenyl)propyl]quinazoline [Example 72],++ (++ = 90-100% control at 400 ppm)

# System: Twospotted spider mites (Tetranychus urticae Koch)
# Assay: Mite/insect screen, sprayed squash cotyledons (SM)
# Format: in vivo
# Conditions: Tetranychus urticae, percent mortality, twospotted spider mites; sprayed squash cotyledons; RATE 200 PPM; read-out: SM RESULTS %
# Method in brief: as §1
row,Compound,mortality at 200 ppm
1,"CC(COc1ncnc2c(F)cccc12)c1ccc(-c2ccccc2)cc1 (centres unmarked) [Example 199, 8-fluoro-4-[2-(1,1'-biphenyl)4-ylpropoxy]quinazoline]",100%
2,"CC(C)(C)c1ccc(CCCCOc2ncnc3c(F)cccc23)cc1 [Example 200, 8-fluoro-4-[4-[4-(t-butyl)phenyl]butoxy]quinazoline]",80%

# Same assay, conditions: Tetranychus urticae, percent mortality, twospotted spider mites; sprayed squash cotyledons; RATE 400 PPM; read-out: SM RESULTS %
row,Compound,mortality at 400 ppm
1,"Fc1ccccc1Oc1ccc(CCOc2ncnc3c(F)cccc23)cc1 [Example 198, 8-fluoro-4-[2-[4-(2-fluorophenoxy)phenyl]ethoxy]quinazoline]",0%
2,"CC(COc1ncnc2c(F)cccc12)c1ccc(-c2ccccc2)cc1 (centres unmarked) [Example 199, 8-fluoro-4-[2-(1,1'-biphenyl)4-ylpropoxy]quinazoline]",0%
3,"CC(C)(C)c1ccc(CCCCOc2ncnc3c(F)cccc23)cc1 [Example 200, 8-fluoro-4-[4-[4-(t-butyl)phenyl]butoxy]quinazoline]",100%

# Same assay, conditions: Tetranychus urticae, percent mortality; spray rate 200 ppm; read-out: SM RESULTS %
row,Compound,mortality at 200 ppm
1,"COc1ccccc1CCNc1nc(NCCc2ccccc2OC)c2ccccc2n1 [Example 25, N,N'-bis[2-(2-methoxyphenyl)ethyl]-2,4-quinazolinediamine]",0%
2,"Fc1ccccc1Oc1ccc(CCOc2ncnc3c(F)cccc23)cc1 [Example 198, 8-fluoro-4-[2-[4-(2-fluorophenoxy)phenyl]ethoxy]quinazoline]",100%

# Same assay, conditions: percent mortality; spray rate 400 ppm
row,Compound,SM RESULTS %
1,[3-(3-methoxyphenyl)propyl]quinazoline [Example 72],0%

# System: Cercospora beticola (leaf spot)
# Assay: Greenhouse Test 1, foliar spray fungicide screen (LEAF SPOT), host sugar beet
# Format: in vivo
# Conditions: disease control rating, 400 ppm (+++ at 100 ppm)
row,Compound,LEAF SPOT
1,"COc1ccccc1CCNc1nc(NCCc2ccccc2OC)c2ccccc2n1 [Example 25, N,N'-bis[2-(2-methoxyphenyl)ethyl]-2,4-quinazolinediamine]",- (- = 0-19% control at 400 ppm)

# System: Pyricularia oryzae (rice blast)
# Assay: not given
# Format: in vivo
# Conditions: disease control rating, foliar spray, host rice; 400 ppm (+++ at 100 ppm)
row,Compound,RICE BLAST
1,"COc1ccccc1CCNc1nc(NCCc2ccccc2OC)c2ccccc2n1 [Example 25, N,N'-bis[2-(2-methoxyphenyl)ethyl]-2,4-quinazolinediamine]",+ (+ = 20-89% control at 400 ppm)
2,"Fc1ccccc1Oc1ccc(CCOc2ncnc3c(F)cccc23)cc1 [Example 198, 8-fluoro-4-[2-[4-(2-fluorophenoxy)phenyl]ethoxy]quinazoline]",+++ (+++ = 90-100% control at 100 ppm)
3,"CC(COc1ncnc2c(F)cccc12)c1ccc(-c2ccccc2)cc1 (centres unmarked) [Example 199, 8-fluoro-4-[2-(1,1'-biphenyl)4-ylpropoxy]quinazoline]",+ (+ = 20-89% control at 400 ppm)
4,"CC(C)(C)c1ccc(CCCCOc2ncnc3c(F)cccc23)cc1 [Example 200, 8-fluoro-4-[4-[4-(t-butyl)phenyl]butoxy]quinazoline]",+++ (+++ = 90-100% control at 100 ppm)
5,[3-(3-methoxyphenyl)propyl]quinazoline [Example 72],+ (+ = 20-89% control at 400 ppm)

# System: Pseudoperonospora cubensis (downy mildew)
# Assay: Greenhouse Test 1, foliar spray fungicide screen (DOWN MDEW), host squash
# Format: in vivo
# Conditions: disease control rating, 400 ppm (+++ at 100 ppm)
row,Compound,DOWN MDEW
1,"COc1ccccc1CCNc1nc(NCCc2ccccc2OC)c2ccccc2n1 [Example 25, N,N'-bis[2-(2-methoxyphenyl)ethyl]-2,4-quinazolinediamine]",++ (++ = 90-100% control at 400 ppm)
2,"Fc1ccccc1Oc1ccc(CCOc2ncnc3c(F)cccc23)cc1 [Example 198, 8-fluoro-4-[2-[4-(2-fluorophenoxy)phenyl]ethoxy]quinazoline]",+++ (+++ = 90-100% control at 100 ppm)
3,"CC(COc1ncnc2c(F)cccc12)c1ccc(-c2ccccc2)cc1 (centres unmarked) [Example 199, 8-fluoro-4-[2-(1,1'-biphenyl)4-ylpropoxy]quinazoline]",+ (+ = 20-89% control at 400 ppm)
4,"CC(C)(C)c1ccc(CCCCOc2ncnc3c(F)cccc23)cc1 [Example 200, 8-fluoro-4-[4-[4-(t-butyl)phenyl]butoxy]quinazoline]",+++ (+++ = 90-100% control at 100 ppm)
5,[3-(3-methoxyphenyl)propyl]quinazoline [Example 72],++ (++ = 90-100% control at 400 ppm)

# System: Puccinia recondita tritici (leaf rust)
# Assay: Greenhouse Test 1, foliar spray fungicide screen (LEAF RUST), host wheat
# Format: in vivo
# Conditions: disease control rating, 400 ppm (+++ at 100 ppm)
row,Compound,LEAF RUST
1,"COc1ccccc1CCNc1nc(NCCc2ccccc2OC)c2ccccc2n1 [Example 25, N,N'-bis[2-(2-methoxyphenyl)ethyl]-2,4-quinazolinediamine]",+ (+ = 20-89% control at 400 ppm)
2,"Fc1ccccc1Oc1ccc(CCOc2ncnc3c(F)cccc23)cc1 [Example 198, 8-fluoro-4-[2-[4-(2-fluorophenoxy)phenyl]ethoxy]quinazoline]",+++ (+++ = 90-100% control at 100 ppm)
3,"CC(COc1ncnc2c(F)cccc12)c1ccc(-c2ccccc2)cc1 (centres unmarked) [Example 199, 8-fluoro-4-[2-(1,1'-biphenyl)4-ylpropoxy]quinazoline]",+++ (+++ = 90-100% control at 100 ppm)
4,"CC(C)(C)c1ccc(CCCCOc2ncnc3c(F)cccc23)cc1 [Example 200, 8-fluoro-4-[4-[4-(t-butyl)phenyl]butoxy]quinazoline]",+ (+ = 20-89% control at 400 ppm)
5,[3-(3-methoxyphenyl)propyl]quinazoline [Example 72],+++ (+++ = 90-100% control at 100 ppm)

# System: Septoria tritici (leaf blotch)
# Assay: Greenhouse Test 1, foliar spray fungicide screen (LEAF BLOT), host wheat
# Format: in vivo
# Conditions: disease control rating, 400 ppm (+++ at 100 ppm)
row,Compound,LEAF BLOT
1,"COc1ccccc1CCNc1nc(NCCc2ccccc2OC)c2ccccc2n1 [Example 25, N,N'-bis[2-(2-methoxyphenyl)ethyl]-2,4-quinazolinediamine]",- (- = 0-19% control at 400 ppm)

# System: southern armyworm (Spodopetra eridania Cramer)
# Assay: Mite/insect screen, sprayed squash leaves (SAW)
# Format: in vivo
# Conditions: Spodoptera eridania, percent mortality, Southern armyworm; sprayed squash leaves; RATE 200 PPM; read-out: SAW RESULTS %
# Method in brief: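 Mortality and phytotoxicity read after standard exposure periods on sprayed squash: cotyledons for melon aphids and twospotted spider mites, excised leaves placed with southern armyworm larvae. Spray solutions were water dilutions of acetone/alcohol stocks containing TOXIMUL R and S emulsifiers, applied to runoff at 10 psi and air-dried one hour.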
row,Compound,mortality at 200 ppm
1,"CC(COc1ncnc2c(F)cccc12)c1ccc(-c2ccccc2)cc1 (centres unmarked) [Example 199, 8-fluoro-4-[2-(1,1'-biphenyl)4-ylpropoxy]quinazoline]",0%
2,"CC(C)(C)c1ccc(CCCCOc2ncnc3c(F)cccc23)cc1 [Example 200, 8-fluoro-4-[4-[4-(t-butyl)phenyl]butoxy]quinazoline]",0%

# Same assay, conditions: Spodoptera eridania, percent mortality, Southern armyworm; sprayed squash leaves; RATE 400 PPM; read-out: SAW RESULTS %
row,Compound,mortality at 400 ppm
1,"Fc1ccccc1Oc1ccc(CCOc2ncnc3c(F)cccc23)cc1 [Example 198, 8-fluoro-4-[2-[4-(2-fluorophenoxy)phenyl]ethoxy]quinazoline]",100%
2,"CC(COc1ncnc2c(F)cccc12)c1ccc(-c2ccccc2)cc1 (centres unmarked) [Example 199, 8-fluoro-4-[2-(1,1'-biphenyl)4-ylpropoxy]quinazoline]",60%
3,"CC(C)(C)c1ccc(CCCCOc2ncnc3c(F)cccc23)cc1 [Example 200, 8-fluoro-4-[4-[4-(t-butyl)phenyl]butoxy]quinazoline]",0%

# Same assay, conditions: Spodoptera eridania, percent mortality; spray rate 200 ppm; read-out: SAW RESULTS %
row,Compound,mortality at 200 ppm
1,"COc1ccccc1CCNc1nc(NCCc2ccccc2OC)c2ccccc2n1 [Example 25, N,N'-bis[2-(2-methoxyphenyl)ethyl]-2,4-quinazolinediamine]",0%
2,"Fc1ccccc1Oc1ccc(CCOc2ncnc3c(F)cccc23)cc1 [Example 198, 8-fluoro-4-[2-[4-(2-fluorophenoxy)phenyl]ethoxy]quinazoline]",100%

# Same assay, conditions: percent mortality; spray rate 400 ppm
row,Compound,SAW RESULTS %
1,[3-(3-methoxyphenyl)propyl]quinazoline [Example 72],100%
